Measured values published in PubChem BioAssay AID2060510 (Molecular Pharmacology Branch, DTP, NCI, 2025).

Test system: 439559-082-T-J2-PDC spheroids viability
Assay: Anticancer human tumor 439559-082-T-J2-PDC patient-derived colon adenocarcinoma cell line growth inhibition [GQUAD]
Settings: for IC50: curve of first compound; for viability, T/C: stronger effect = lower value
Procedure, shortened: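 Tumor cells were grown as complex spheroids with HUVEC endothelial cells and mesenchymal stem cells as stroma. G-quadruplex stabilizers were combined with targeted agents over half-log dilutions from near the clinical Cmax, or from 10 microM.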

[1] = second compound 0.0316 µM, first compound 0.0316 µM
[2] = second compound 0.0316 µM, first compound 0.1 µM
[3] = second compound 0.0316 µM, first compound 0.316 µM
[4] = second compound 0.0316 µM, first compound 1 µM
[5] = second compound 0.0316 µM, first compound 3.16 µM
[6] = second compound 0.0316 µM, first compound 10 µM
[7] = second compound 0.1 µM, first compound 0.0316 µM
[8] = second compound 0.1 µM, first compound 0.1 µM
[9] = second compound 0.1 µM, first compound 0.316 µM
[10] = second compound 0.1 µM, first compound 1 µM
[11] = second compound 0.1 µM, first compound 3.16 µM
[12] = second compound 0.1 µM, first compound 10 µM
[13] = second compound 0.316 µM, first compound 0.0316 µM
[14] = second compound 0.316 µM, first compound 0.1 µM
[15] = second compound 0.316 µM, first compound 0.316 µM
[16] = second compound 0.316 µM, first compound 1 µM
[17] = second compound 0.316 µM, first compound 3.16 µM
[18] = second compound 0.316 µM, first compound 10 µM
[19] = second compound 1 µM, first compound 0.0316 µM
[20] = second compound 1 µM, first compound 0.1 µM
[21] = second compound 1 µM, first compound 0.316 µM
[22] = second compound 1 µM, first compound 1 µM
[23] = second compound 1 µM, first compound 3.16 µM
[24] = second compound 1 µM, first compound 10 µM
[25] = second compound 3.16 µM, first compound 0.0316 µM
[26] = second compound 3.16 µM, first compound 0.1 µM
[27] = second compound 3.16 µM, first compound 0.316 µM
[28] = second compound 3.16 µM, first compound 1 µM
[29] = second compound 3.16 µM, first compound 3.16 µM
[30] = second compound 3.16 µM, first compound 10 µM
[31] = second compound 10 µM, first compound 0.0316 µM
[32] = second compound 10 µM, first compound 0.1 µM
[33] = second compound 10 µM, first compound 0.316 µM
[34] = second compound 10 µM, first compound 1 µM
[35] = second compound 10 µM, first compound 3.16 µM
[36] = second compound 10 µM, first compound 10 µM
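Also: spheroids exposed to the agents for 7 days before readout.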
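For viability, T/C in this document: percent of luminescence signal in DMSO vehicle wells taken as 100% viability.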

Question: What does the source list for `C=CCn1c(=O)c2cnc(Nc3ccc(N4CCN(C)CC4)cc3)nc2n1-c1cccc(C(C)(C)O)n1` + CN(C)c1ccc(Nc2c3ccc(NC(=O)CCN4CCCC4)cc3nc3cc(NC(=O)CCN4CCCC4)ccc23)cc1?
Answer: IC50 (second compound 0.0316 µM): 4.71 µM; IC50 (second compound 0.1 µM): 3.41 µM; IC50 (second compound 0.316 µM): 4.01 µM; IC50 (second compound 1 µM): 3.54 µM; IC50 (second compound 3.16 µM): 4.04 µM; IC50 (second compound 10 µM): 3.41 µM; viability, T/C [1]: 95%; viability, T/C [2]: 89.5%; viability, T/C [3]: 85.1%; viability, T/C [4]: 82.1%; viability, T/C [5]: 63.3%; viability, T/C [6]: 24.8%; viability, T/C [7]: 94.7%; viability, T/C [8]: 97.9%; viability, T/C [9]: 85%; viability, T/C [10]: 69.4%; viability, T/C [11]: 54.4%; viability, T/C [12]: 20.9%; viability, T/C [13]: 99.3%; viability, T/C [14]: 101%; viability, T/C [15]: 82.7%; viability, T/C [16]: 81%; viability, T/C [17]: 55.7%; viability, T/C [18]: 24.5%; viability, T/C [19]: 101%; viability, T/C [20]: 96.7%; viability, T/C [21]: 88.6%; viability, T/C [22]: 74.9%; viability, T/C [23]: 54.5%; viability, T/C [24]: 18.2%; viability, T/C [25]: 96.2%; viability, T/C [26]: 97.8%; viability, T/C [27]: 93.9%; viability, T/C [28]: 89.3%; viability, T/C [29]: 58.5%; viability, T/C [30]: 18.2%; viability, T/C [31]: 94.3%; viability, T/C [32]: 90.9%; viability, T/C [33]: 78.2%; viability, T/C [34]: 76.2%; viability, T/C [35]: 53.1%; viability, T/C [36]: 13.3%

Question: Which IC50 (second compound 0.0316 µM) does the source give for `COc1ncnc(C2CC2)c1-c1ncc2cnn(Cc3ccc(-c4nc(C(F)(F)F)cn4C(C)C)cc3)c2n1` + CN(C)c1ccc(Nc2c3ccc(NC(=O)CCN4CCCC4)cc3nc3cc(NC(=O)CCN4CCCC4)ccc23)cc1 here?
Answer: > 10 µM

Question: And the IC50 (second compound 0.1 µM)?
Answer: > 10 µM

Question: And the IC50 (second compound 0.316 µM)?
Answer: > 10 µM

Question: And the IC50 (second compound 1 µM)?
Answer: > 10 µM

Question: And the IC50 (second compound 3.16 µM)?
Answer: > 10 µM

Question: And the IC50 (second compound 10 µM)?
Answer: > 10 µM

Question: What about the viability, T/C [1] of the same compound?
Answer: 93.2%

Question: What about the viability, T/C [2] of the same compound?
Answer: 106%

Question: And the viability, T/C [3]?
Answer: 90.6%

Question: What about the viability, T/C [4] of the same compound?
Answer: 89.5%

Question: And the viability, T/C [5]?
Answer: 103%

Question: What about the viability, T/C [6] of the same compound?
Answer: 98.5%

Question: What about the viability, T/C [7] of the same compound?
Answer: 98.7%

Question: And the viability, T/C [8]?
Answer: 93.5%

Question: What about the viability, T/C [9] of the same compound?
Answer: 97.5%

Question: And the viability, T/C [10]?
Answer: 99.1%

Question: What about the viability, T/C [11] of the same compound?
Answer: 94.8%

Question: And the viability, T/C [12]?
Answer: 96.6%

Question: And the viability, T/C [13]?
Answer: 91.6%

Question: And the viability, T/C [14]?
Answer: 96.1%

Question: And the viability, T/C [15]?
Answer: 82.7%

Question: And the viability, T/C [16]?
Answer: 97.7%

Question: What about the viability, T/C [17] of the same compound?
Answer: 96.8%

Question: What about the viability, T/C [18] of the same compound?
Answer: 102%

Question: And the viability, T/C [19]?
Answer: 98.8%

Question: And the viability, T/C [20]?
Answer: 96.3%

Question: And the viability, T/C [21]?
Answer: 98.4%

Question: What about the viability, T/C [22] of the same compound?
Answer: 87.9%

Question: What about the viability, T/C [23] of the same compound?
Answer: 104%

Question: And the viability, T/C [24]?
Answer: 92.7%

Question: And the viability, T/C [25]?
Answer: 90.4%

Question: And the viability, T/C [26]?
Answer: 98.4%

Question: And the viability, T/C [27]?
Answer: 91.6%

Question: And the viability, T/C [28]?
Answer: 93.5%

Question: And the viability, T/C [29]?
Answer: 96%

Question: And the viability, T/C [30]?
Answer: 99%

Question: And the viability, T/C [31]?
Answer: 89.3%

Question: What about the viability, T/C [32] of the same compound?
Answer: 86.2%

Question: And the viability, T/C [33]?
Answer: 90.6%

Question: And the viability, T/C [34]?
Answer: 96.6%

Question: What about the viability, T/C [35] of the same compound?
Answer: 105%

Question: And the viability, T/C [36]?
Answer: 92.6%

Question: How did the IC50 (second compound 0.0316 µM) turn out when `CC(C)n1c(=O)n(C)c2cnc3cc(F)c(-c4ccc(OCCCN5CCCCC5)nc4)cc3c21` + Cc1[nH]c2ccc(F)cc2c1-c1nc2c3cccnc3c3ncccc3c2[nH]1 was run?
Answer: > 10 µM

Question: What about the IC50 (second compound 0.1 µM) of the same compound?
Answer: > 10 µM

Question: What about the IC50 (second compound 0.316 µM) of the same compound?
Answer: > 10 µM

Question: What about the IC50 (second compound 1 µM) of the same compound?
Answer: > 10 µM

Question: And the IC50 (second compound 3.16 µM)?
Answer: > 10 µM

Question: And the IC50 (second compound 10 µM)?
Answer: > 10 µM

Question: What about the viability, T/C [1] of the same compound?
Answer: 112%

Question: What about the viability, T/C [2] of the same compound?
Answer: 94.7%

Question: And the viability, T/C [3]?
Answer: 126%

Question: What about the viability, T/C [4] of the same compound?
Answer: 125%

Question: And the viability, T/C [5]?
Answer: 130%

Question: What about the viability, T/C [6] of the same compound?
Answer: 102%

Question: And the viability, T/C [7]?
Answer: 116%

Question: And the viability, T/C [8]?
Answer: 110%

Question: And the viability, T/C [9]?
Answer: 117%

Question: And the viability, T/C [10]?
Answer: 123%

Question: What about the viability, T/C [11] of the same compound?
Answer: 139%

Question: And the viability, T/C [12]?
Answer: 100%

Question: What about the viability, T/C [13] of the same compound?
Answer: 98.7%

Question: What about the viability, T/C [14] of the same compound?
Answer: 104%

Question: What about the viability, T/C [15] of the same compound?
Answer: 127%

Question: And the viability, T/C [16]?
Answer: 122%

Question: And the viability, T/C [17]?
Answer: 128%

Question: What about the viability, T/C [18] of the same compound?
Answer: 96.4%

Question: What about the viability, T/C [19] of the same compound?
Answer: 106%

Question: And the viability, T/C [20]?
Answer: 103%

Question: What about the viability, T/C [21] of the same compound?
Answer: 118%

Question: What about the viability, T/C [22] of the same compound?
Answer: 125%

Question: What about the viability, T/C [23] of the same compound?
Answer: 113%

Question: And the viability, T/C [24]?
Answer: 113%

Question: And the viability, T/C [25]?
Answer: 90%

Question: And the viability, T/C [26]?
Answer: 88%

Question: What about the viability, T/C [27] of the same compound?
Answer: 107%

Question: What about the viability, T/C [28] of the same compound?
Answer: 102%

Question: And the viability, T/C [29]?
Answer: 89.9%

Question: What about the viability, T/C [30] of the same compound?
Answer: 66.7%

Question: What about the viability, T/C [31] of the same compound?
Answer: 85.1%

Question: And the viability, T/C [32]?
Answer: 83.4%

Question: What about the viability, T/C [33] of the same compound?
Answer: 98.8%

Question: What about the viability, T/C [34] of the same compound?
Answer: 98.8%

Question: What about the viability, T/C [35] of the same compound?
Answer: 99.6%

Question: What about the viability, T/C [36] of the same compound?
Answer: 84.8%
